Read-outs that look alike come from different tables or passages of the source. Ends that are not written are not given here. Where only a bound is given, the exact number is not on record here.

The test system of one series is B. subtilis BNCC109047. It counts as cell-based. Conditions: BNCC109047, 18 h. As for the experimental part:
(§1) The antimicrobial activity of the synthesized AMPs was evaluated against several strains, including E. coli BL21(DE3), S. aureus BNCC186335, B. subtilis BNCC109047, and drug‐resistant strains such as E coli XJ13000957, E. coli XJ13022488, E. coli XJ19025100, E. coli XJ22006301, and MRSA ATCC43300. All strains are stored at ‐80°C and, before testing, were transferred into fresh Mueller‐Hinton Medium and incubated for 24 h at 37°C. Fresh cultures were used for the antimicrobial assays. The MIC values were determined using the broth microdilution method according to the Clinical and Laboratory Standards Institute (CLSI) protocol. Initial bacterial inoculums (5× 10^5 colony forming units (CFU)/mL) in Mueller‐Hinton Broth were exposed to varying concentrations of the compounds (0.5‐512 µg/mL) and incubated for 18 h at 37°C. The experiments are conducted on 96‐well microtiter plates with a final volume of 100 µL. The MIC was defined as the lowest concentration of the compound that inhibits visible bacterial growth. Additionally, the MBC was evaluated. After determining the MIC, samples from the MIC well and two higher concentrations are plated on agar plates. The MBC was recorded as the lowest concentration at which no visible bacterial colonies were observed. All experiments were performed in triplicate, with positive controls (ensuring proper bacterial growth) and negative controls (ensuring sterility) included.

The next series deals with E. coli BL21(DE3). It is filed as cell-based. Conditions: BL21, 18 h. As for the experimental part:
as §1

A further series deals with S. aureus BNCC186335. It is filed as cell-based. Particulars: BNCC186335, 18 h. On the procedure: as §1
In another series the test system is MC3T3-E1 cells. It is filed as cell-based, mouse. The text has this:
(§2) The assessment of cytotoxicity primarily relies on alterations in cell membrane permeability. To evaluate the cytotoxicity of AMPs, we employed the Cell Counting Kit‐8 (CCK‐8) assay, which is widely recognized as one of the most frequently used methods for assessing cytotoxicity. The CCK‐8 assay utilizes WST‐8 [2‐(2‐Methoxy‐4‐nitrophenyl)‐3‐(4‐nitrophenyl)‐5‐(2,4‐disulfophenyl)‐2H‐tetrazolium Sodium Salt] for rapid detection based on the principle that intracellular dehydrogenase‐mediated biological reduction of WST‐8 generates an orange formazan dye. This dye can dissolve in the medium, and its quantity is directly proportional to the number of viable cells. For the cytotoxicity test, 2 000 MC3T3‐E1 cells or CH3 cells were seeded into each well of 96‐well plates and cultured in DMEM medium containing 10% FBS and 1% penicillin‐streptomycin at 37 °C and 5% CO2overnight. Then the culture medium was removed, and the AMPs at the various concentrations in the media were added to each well. The cells were further incubated for 48 h, followed by the addition of […] of CCK‐8 and subsequent incubation for 1 h. The absorbance of the solution was measured at 450 nm by a microplate reader. The cell viability was calculated as follows (A represents absorbance): (11) %Cell viability=Asample−Ablank/Anegative−Ablank×100
The data were plotted as AMP concentration versus the percentage of living cells using GraphPad Prism 8.0.

The test system of a further series is E. coli XJ19025100. It counts as cell-based. Particulars: XJ19025100, 18 h. On the procedure:
as §1

The test system of series [1] is bone marrow mesenchymal stem cells CH3. It is filed as cell-based.
From the text: as §2, with “viability=Asample−Ablank/Anegative−Ablank×100 […]” for “viability=Asample−Ablank/Anegative−Ablank×100”

Another series has as its system human red blood cells. It counts as cell-based. Particulars: 3 h. As for the experimental part:
Anticoagulant whole blood was diluted with PBS at a ratio of 1:1 and subsequently centrifuged at 1500×g for 10 minutes. The supernatant and white blood cell layer were discarded, while the red blood cells were washed three times with PBS until the supernatant became colorless and transparent. A 2% red blood cell suspension was then prepared using PBS. For the positive control, 0.2 mL of 1% Triton X‐100 was mixed with 0.8 mL of the red blood cell suspension. The negative control consisted of 0.2 mL of PBS combined with 0.8 mL of the red blood cell suspension. In the experimental group, 0.2 mL of MPOP‐03 (prepared at gradient concentrations) was added to 0.8 mL of the red blood cell suspension. Three replicates were prepared for each group. All samples were incubated at 37°C in a constant temperature water bath for 3 hours. Following incubation, the samples were centrifuged at 1500×g for 5 minutes, and the supernatants were carefully aspirated and transferred to new centrifuge tubes. The optical density values of the samples were measured at a wavelength of 524 nm using a microplate reader. The hemolysis ratio was calculated as follows (A represents absorbance): (12) %Hemolysis ratio=Asample−Anegative/Apositive−Anegative×100

Turning to DPFGIMSKLQQFIRKFYQSLKHLKT [MPOP-01], the “MIC B. subtilis” value in the series with B. subtilis BNCC109047 turned out to be 8 mg/L. Besides, in the series on E. coli BL21(DE3), the “MIC E. coli” value was 128 mg/L. Further, the “MIC S. aureus” value against S. aureus BNCC186335 is 4 mg/L. This sequence gave a CC50 (MC3T3-E1) with MC3T3-E1 cells of 24 mg/L.
For GGGGMLKYFKTAIHTIKKIGQKIVN [MPOP-04] the same measures were 4 mg/L, 16 mg/L, 4 mg/L and 22 mg/L.
As to GIGKFLHSFTKFFSKIMNAIR [MPOP-07], the “MIC B. subtilis” value in the series on B. subtilis BNCC109047 is 4 mg/L. Further, the “MIC S. aureus” value against S. aureus BNCC186335 stood at 4 mg/L. For the same sequence, the CC50 (MC3T3-E1) in the series with MC3T3-E1 cells was 35 mg/L.
Take GLFDVIKKIAEMVSNGYHTVKKKF [MPOP-08]: the “MIC B. subtilis” value against B. subtilis BNCC109047 is 4 mg/L. Besides, the “MIC E. coli” value against E. coli BL21(DE3) was 32 mg/L. Further, in the series on S. aureus BNCC186335, the “MIC S. aureus” value worked out at 4 mg/L. This sequence displayed a CC50 (MC3T3-E1) with MC3T3-E1 cells of 24 mg/L.
Regarding IGSFKHVFKRITSMAKAIR [MPOP-10], the “MIC B. subtilis” value with B. subtilis BNCC109047 was 32 mg/L. Moreover, the “MIC E. coli” value in the series on E. coli BL21(DE3) worked out at 256 mg/L. Also, in the series on S. aureus BNCC186335, the “MIC S. aureus” value was found to be 32 mg/L.
Turning to IKGIIKTIKKMASHFLHSAS [MPOP-09], the “MIC B. subtilis” value against B. subtilis BNCC109047 was determined as 8 mg/L. The “MIC E. coli” value in the series with E. coli BL21(DE3) was determined as 16 mg/L. Besides, the “MIC S. aureus” value against S. aureus BNCC186335 amounted to 8 mg/L. For the same sequence, the CC50 (MC3T3-E1) in the series with MC3T3-E1 cells amounted to 118 mg/L.
Consider KLFRVVKKMFHSVFSSIHKYFR [MPOP-06], for which, in the series on B. subtilis BNCC109047, the “MIC B. subtilis” value is 8 mg/L. Moreover, the “MIC E. coli” value against E. coli BL21(DE3) worked out at 32 mg/L. The “MIC S. aureus” value against S. aureus BNCC186335 came out at 8 mg/L. For the same sequence, the CC50 (MC3T3-E1) in the series with MC3T3-E1 cells is 20 mg/L.
As for LHQIKSVIKTAMNVLSGLFSAIKKK [MPOP-02], the “MIC B. subtilis” value in the series on B. subtilis BNCC109047 is 4 mg/L. In the series on E. coli BL21(DE3), the “MIC E. coli” value is 32 mg/L. Besides, the “MIC S. aureus” value against S. aureus BNCC186335 came out at 4 mg/L. The CC50 (MC3T3-E1) in the series with MC3T3-E1 cells came out at 15 mg/L.
MSKFKHFFNAVKSIFRGLTK [MPOP-03]: in the series on B. subtilis BNCC109047, the “MIC B. subtilis” value was 2 mg/L. In the series on E. coli XJ19025100, the “MIC against E. coli XJ19025100” value was at most 8 mg/L. In addition, in the series with MC3T3-E1 cells, the CC50 (MC3T3-E1) was 85 mg/L. In addition, the “CC50 for MC3T3-E1” value with MC3T3-E1 cells (48 h) was 84.96 mg/L. Moreover, the “CC50 for CH3” value worked out at 32.47 mg/L in series [1] and 34.27 mg/L in series [1] (48 h). Moreover, in the series with human red blood cells, the “HC50 (concentration required to induce 50% hemolysis of red blood cells)” value was 256 µg/mL.
For VMKRIGTILSGLHSLLSKIF [MPOP-05], in the series with B. subtilis BNCC109047, the “MIC B. subtilis” value is 4 mg/L. The “MIC E. coli” value in the series with E. coli BL21(DE3) is 32 mg/L. Moreover, the “MIC S. aureus” value against S. aureus BNCC186335 stood at 4 mg/L. In the series on MC3T3-E1 cells, this sequence yielded a CC50 (MC3T3-E1) of 28 mg/L.
